Assay results reported in the NIST ThermoML archive (doi:10.1021/je800224k).
± gives the expanded uncertainty stated by the source.

Settings: Liquid

CCn1cc[n+](C)c1.F[B-](F)(F)F [1-ethyl-3-methylimidazolium tetrafluoroborate]
Settings | mass density [kg/m3]
293.15 K, 101.33 kPa, Vibrating tube method | 1284.4 ± 4.8
313.15 K, 101.33 kPa, Vibrating tube method | 1269.1 ± 4.7
313.2 K, 10000 kPa, Bellows volumetry | 1274 ± 5
313.2 K, 20000 kPa, Bellows volumetry | 1278 ± 5
313.2 K, 30000 kPa, Bellows volumetry | 1282 ± 5
313.2 K, 40000 kPa, Bellows volumetry | 1287 ± 5
313.2 K, 50000 kPa, Bellows volumetry | 1291 ± 5
313.2 K, 60000 kPa, Bellows volumetry | 1295 ± 5
313.2 K, 70000 kPa, Bellows volumetry | 1299 ± 5
313.2 K, 80000 kPa, Bellows volumetry | 1302 ± 5
313.2 K, 90000 kPa, Bellows volumetry | 1306 ± 5
313.2 K, 100000 kPa, Bellows volumetry | 1310 ± 5
313.2 K, 110000 kPa, Bellows volumetry | 1313 ± 5
313.2 K, 120000 kPa, Bellows volumetry | 1317 ± 5
313.2 K, 130000 kPa, Bellows volumetry | 1320 ± 5
313.2 K, 140000 kPa, Bellows volumetry | 1323 ± 5
313.2 K, 150000 kPa, Bellows volumetry | 1327 ± 5
313.2 K, 160000 kPa, Bellows volumetry | 1330 ± 5
313.2 K, 170000 kPa, Bellows volumetry | 1333 ± 5
313.2 K, 180000 kPa, Bellows volumetry | 1336 ± 5
313.2 K, 190000 kPa, Bellows volumetry | 1339 ± 5
313.2 K, 200000 kPa, Bellows volumetry | 1342 ± 5
332.6 K, 10000 kPa, Bellows volumetry | 1259 ± 5
332.6 K, 20000 kPa, Bellows volumetry | 1264 ± 5
332.6 K, 30000 kPa, Bellows volumetry | 1268 ± 5
332.6 K, 40000 kPa, Bellows volumetry | 1273 ± 5
332.6 K, 50000 kPa, Bellows volumetry | 1277 ± 5
332.6 K, 60000 kPa, Bellows volumetry | 1281 ± 5
332.6 K, 70000 kPa, Bellows volumetry | 1285 ± 5
332.6 K, 80000 kPa, Bellows volumetry | 1289 ± 5
332.6 K, 90000 kPa, Bellows volumetry | 1293 ± 5
332.6 K, 100000 kPa, Bellows volumetry | 1297 ± 5
332.6 K, 110000 kPa, Bellows volumetry | 1300 ± 5
332.6 K, 120000 kPa, Bellows volumetry | 1304 ± 5
332.6 K, 130000 kPa, Bellows volumetry | 1307 ± 5
332.6 K, 140000 kPa, Bellows volumetry | 1311 ± 5
332.6 K, 150000 kPa, Bellows volumetry | 1314 ± 5
332.6 K, 160000 kPa, Bellows volumetry | 1317 ± 5
332.6 K, 170000 kPa, Bellows volumetry | 1321 ± 5
332.6 K, 180000 kPa, Bellows volumetry | 1324 ± 5
332.6 K, 190000 kPa, Bellows volumetry | 1327 ± 5
332.6 K, 200000 kPa, Bellows volumetry | 1330 ± 5
333.15 K, 101.33 kPa, Vibrating tube method | 1254 ± 4.6
352.7 K, 10000 kPa, Bellows volumetry | 1244 ± 5
352.7 K, 20000 kPa, Bellows volumetry | 1249 ± 5
352.7 K, 30000 kPa, Bellows volumetry | 1254 ± 5
352.7 K, 40000 kPa, Bellows volumetry | 1259 ± 5
352.7 K, 50000 kPa, Bellows volumetry | 1263 ± 5
352.7 K, 60000 kPa, Bellows volumetry | 1267 ± 5
352.7 K, 70000 kPa, Bellows volumetry | 1272 ± 5
352.7 K, 80000 kPa, Bellows volumetry | 1276 ± 5
352.7 K, 90000 kPa, Bellows volumetry | 1280 ± 5
352.7 K, 100000 kPa, Bellows volumetry | 1284 ± 5
352.7 K, 110000 kPa, Bellows volumetry | 1287 ± 5
352.7 K, 120000 kPa, Bellows volumetry | 1291 ± 5
352.7 K, 130000 kPa, Bellows volumetry | 1295 ± 5
352.7 K, 140000 kPa, Bellows volumetry | 1298 ± 5
352.7 K, 150000 kPa, Bellows volumetry | 1302 ± 5
352.7 K, 160000 kPa, Bellows volumetry | 1305 ± 5
352.7 K, 170000 kPa, Bellows volumetry | 1309 ± 5
352.7 K, 180000 kPa, Bellows volumetry | 1312 ± 5
352.7 K, 190000 kPa, Bellows volumetry | 1315 ± 5
352.7 K, 200000 kPa, Bellows volumetry | 1318 ± 5
353.15 K, 101.33 kPa, Vibrating tube method | 1239.3 ± 4.5
372.8 K, 10000 kPa, Bellows volumetry | 1230 ± 4
372.8 K, 20000 kPa, Bellows volumetry | 1235 ± 4
372.8 K, 30000 kPa, Bellows volumetry | 1240 ± 4
372.8 K, 40000 kPa, Bellows volumetry | 1245 ± 5
372.8 K, 50000 kPa, Bellows volumetry | 1250 ± 5
372.8 K, 60000 kPa, Bellows volumetry | 1254 ± 5
372.8 K, 70000 kPa, Bellows volumetry | 1258 ± 5
372.8 K, 80000 kPa, Bellows volumetry | 1263 ± 5
372.8 K, 90000 kPa, Bellows volumetry | 1267 ± 5
372.8 K, 100000 kPa, Bellows volumetry | 1271 ± 5
372.8 K, 110000 kPa, Bellows volumetry | 1275 ± 5
372.8 K, 120000 kPa, Bellows volumetry | 1279 ± 5
372.8 K, 130000 kPa, Bellows volumetry | 1282 ± 5
372.8 K, 140000 kPa, Bellows volumetry | 1286 ± 5
372.8 K, 150000 kPa, Bellows volumetry | 1290 ± 5
372.8 K, 160000 kPa, Bellows volumetry | 1293 ± 5
372.8 K, 170000 kPa, Bellows volumetry | 1297 ± 5
372.8 K, 180000 kPa, Bellows volumetry | 1300 ± 5
372.8 K, 190000 kPa, Bellows volumetry | 1303 ± 5
372.8 K, 200000 kPa, Bellows volumetry | 1307 ± 5
392.9 K, 10000 kPa, Bellows volumetry | 1216 ± 4
392.9 K, 20000 kPa, Bellows volumetry | 1221 ± 4
392.9 K, 30000 kPa, Bellows volumetry | 1227 ± 4
392.9 K, 40000 kPa, Bellows volumetry | 1232 ± 4
392.9 K, 50000 kPa, Bellows volumetry | 1237 ± 4
392.9 K, 60000 kPa, Bellows volumetry | 1241 ± 4
392.9 K, 70000 kPa, Bellows volumetry | 1246 ± 5
392.9 K, 80000 kPa, Bellows volumetry | 1250 ± 5
